In PubChem BioAssay (NCI):
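All cell lines were grown in 96-well plates and treated with compound for 48 hours. TGI denotes the concentration required for complete inhibition of growth.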

Legend:
Experiment in all cases: DTP human tumour cell line panel, 48 h
[1] = tested on: KM12 colon
[2] = tested on: SF-539 CNS
[3] = tested on: HOP-92 NSCLC
[4] = tested on: SK-OV-3 ovarian
[5] = tested on: UACC-62 melanoma
[6] = tested on: SNB-75 CNS
[7] = tested on: RXF 393 renal
[8] = tested on: OVCAR-8 ovarian
[9] = tested on: NCI-H522 lung
[10] = tested on: OVCAR-3 ovarian
[11] = tested on: MCF7 breast
[12] = tested on: OVCAR-4 ovarian
[13] = tested on: MALME-3M melanoma
[14] = tested on: BT-549 breast
[15] = tested on: NCI-H226 lung
[16] = tested on: RPMI-8226 leukemia
[17] = tested on: SF-295 CNS
[18] = tested on: LOX IMVI melanoma
[19] = tested on: PC-3 prostate
[20] = tested on: MDA-MB-435
[21] = tested on: M14 melanoma
[22] = tested on: EKVX NSCLC
[23] = tested on: SK-MEL-2 melanoma
[24] = tested on: SN12C renal
[25] = tested on: NCI-H460 lung
[26] = tested on: HOP-62 NSCLC
[27] = tested on: T-47D breast
[28] = tested on: 786-0 renal
[29] = tested on: NCI/ADR-RES ovarian
[30] = tested on: HCC-2998 colon
[31] = tested on: SNB-19 CNS
[32] = tested on: HS 578T breast
[33] = tested on: HCT-116 colon
[34] = tested on: SR leukemia
[35] = tested on: TK-10 renal
[36] = tested on: U251 CNS
[37] = tested on: ACHN renal
[38] = tested on: MDA-N
[39] = tested on: UO-31 renal
[40] = tested on: A498 renal
[41] = tested on: CCRF-CEM leukemia
[42] = tested on: MOLT-4 leukemia
[43] = tested on: UACC-257 melanoma
[44] = tested on: SW-620 colon
[45] = tested on: IGROV1 ovarian
[46] = tested on: SK-MEL-5 melanoma
[47] = tested on: MDA-MB-231 breast
[48] = tested on: HL-60(TB) leukemia
[49] = tested on: CAKI-1 renal
[50] = tested on: A549 NSCLC
[51] = tested on: HT29 colon
[52] = tested on: K-562 leukemia
[53] = tested on: SK-MEL-28 melanoma
[54] = tested on: NCI-H23 lung
[55] = tested on: SF-268 CNS
[56] = tested on: COLO 205 colon
[57] = tested on: HCT-15 colon
[58] = tested on: DU-145 prostate
[59] = tested on: OVCAR-5 ovarian
[60] = tested on: SNB-78 CNS
[61] = tested on: KM20L2 colon
[62] = tested on: DMS 273 small cell lung
[63] = tested on: DMS 114 small cell lung
[64] = tested on: M19-MEL melanoma

C=C(Cl)c1c(OC)cccc1OCc1ccccc1
TGI [1]: > 100 µM | TGI [2]: > 100 µM | TGI [3]: 78.9 µM | TGI [4]: > 100 µM | TGI [5]: > 100 µM | TGI [6]: > 100 µM | TGI [7]: 51.9 µM | TGI [8]: > 100 µM | TGI [9]: > 100 µM | TGI [10]: > 100 µM | TGI [11]: > 100 µM | TGI [12]: > 100 µM | TGI [13]: > 100 µM | TGI [14]: > 100 µM | TGI [15]: > 100 µM | TGI [16]: > 100 µM | TGI [17]: > 100 µM | TGI [18]: > 100 µM | TGI [19]: > 100 µM | TGI [20]: > 100 µM | TGI [21]: > 100 µM | TGI [22]: > 100 µM | TGI [23]: > 100 µM | TGI [24]: > 100 µM | TGI [25]: > 100 µM | TGI [26]: > 100 µM | TGI [27]: 95.7 µM | TGI [28]: > 100 µM | TGI [29]: > 100 µM | TGI [30]: > 100 µM | TGI [31]: > 100 µM | TGI [32]: > 100 µM | TGI [33]: > 100 µM | TGI [34]: > 100 µM | TGI [35]: > 100 µM | TGI [36]: > 100 µM | TGI [37]: > 100 µM | TGI [38]: > 100 µM | TGI [39]: > 100 µM | TGI [40]: > 100 µM | TGI [41]: > 100 µM | TGI [42]: > 100 µM | TGI [43]: 40.6 µM | TGI [44]: > 100 µM | TGI [45]: > 100 µM | TGI [46]: > 100 µM | TGI [47]: > 100 µM | TGI [48]: > 100 µM | TGI [49]: > 100 µM | TGI [50]: > 100 µM | TGI [51]: > 100 µM | TGI [52]: > 100 µM | TGI [53]: > 100 µM | TGI [54]: > 100 µM | TGI [55]: > 100 µM | TGI [56]: > 100 µM | TGI [57]: > 100 µM | TGI [58]: > 100 µM | TGI [59]: > 100 µM

COC(=O)c1s/c(=N\C(=S)N(C)C)n(-c2ccccc2)c1C(=O)OC
TGI [1]: > 100 µM | TGI [2]: > 100 µM | TGI [3]: > 100 µM | TGI [4]: > 100 µM | TGI [5]: > 100 µM | TGI [6]: > 100 µM | TGI [7]: > 100 µM | TGI [8]: > 100 µM | TGI [9]: > 100 µM | TGI [10]: > 100 µM | TGI [12]: > 100 µM | TGI [13]: > 100 µM | TGI [15]: > 100 µM | TGI [16]: > 100 µM | TGI [17]: > 100 µM | TGI [18]: > 100 µM | TGI [60]: > 100 µM | TGI [21]: > 100 µM | TGI [22]: > 100 µM | TGI [23]: > 100 µM | TGI [24]: > 100 µM | TGI [25]: > 100 µM | TGI [26]: > 100 µM | TGI [28]: > 100 µM | TGI [30]: > 100 µM | TGI [31]: > 100 µM | TGI [33]: > 100 µM | TGI [35]: > 100 µM | TGI [36]: > 100 µM | TGI [37]: > 100 µM | TGI [39]: > 100 µM | TGI [40]: > 100 µM | TGI [61]: > 100 µM | TGI [62]: > 100 µM | TGI [42]: > 100 µM | TGI [43]: > 100 µM | TGI [44]: > 100 µM | TGI [45]: > 100 µM | TGI [46]: > 100 µM | TGI [63]: > 100 µM | TGI [48]: > 100 µM | TGI [49]: > 100 µM | TGI [50]: > 100 µM | TGI [64]: > 100 µM | TGI [51]: > 100 µM | TGI [52]: > 100 µM | TGI [53]: > 100 µM | TGI [54]: > 100 µM | TGI [55]: > 100 µM | TGI [56]: > 100 µM | TGI [57]: > 100 µM | TGI [59]: > 100 µM
